The test system of data set [1] is endogenous mouse HTT transcript or protein. The experiment in a line: BacHD mice: effect on endogenous mouse HTT. Type of data set: in vivo. The protocol: Total RNA from cerebrum and cerebellum was extracted using RNeasy Plus kit (Qiagen) after homogenized in Precellys at 6000 rpm for 40 sec. RNA from blood was extracted using PAXgene blood RNA kit (Qiagen) according to manufacturer protocol. The RNA was quantified by Nanodrop 2000 (Thermo Scientific). cDNAs were synthesized from 140-400 ng RNA using Maxima First strand cDNA synthesis kit using a mix of oligo dT and random hexamers (Thermo Scientific) in 20 uL reaction at 25° C. for 10 min, 50° C. for 15 min then 85° C. for 5 min. Quantitative PCR was performed using Taqman Fast Advanced master mix (Thermo Scientific) in 20 uL with 4 uL of cDNA reaction and primers specific for each genes. The PCR steps were as follows: 95° C. for 20 sec then 40 cycles of 95° C. for 1 sec, 55° C. for 20 sec. […] Relative quantification of gene expression was performed using 2^−ΔΔCT method. Fold changes in the mRNA expression level was calculated following normalization to mouse glucuronidase beta (Gusb) as an endogenous reference.
Snap-frozen mouse tissue samples were homogenized in RIPA buffer with protease and phosphatase inhibitor (Thermo Scientific) by Precellys at 6000 rpm for 40 sec. […] Total protein concentration was quantified using the BCA protein Assay (Thermo Scientific). […] Protein bands were quantified by Image J.

The test system of another data set is tHTT. The data set can be described thus: Mutant and total HTT multiplex HTRF assay in Q48 HTT human embryonic stem cell line: tHTT. The following applies: Q48 HTT hESC, 48 hours. Type of data set: cell-based. In a few lines: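 Q48 HTT hESCs from HD donors were treated with compound for 48 h at 37 °C after 24 h adherence, then lysed. Lysates were read by multiplex HTRF with N-terminal donor, polyQ (MW1) and post-polyQ (MAB2166) antibodies for 4-6 h at RT. Donor/acceptor ratios give relative mHTT and tHTT; pIC50 reported.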
On the technique in general: Time-resolved FRET reads energy transfer from a long-lived donor to a nearby acceptor.

A short description of another data set: Adult ACAT/PBPK model. Set-up: species or system human. The following applies: pediatric value entered. The protocol: To scale up the branaplam pediatric ACAT/PBPK model to an adult ACAT/PBPK model, adult CL projected from nonclinical species was applied to replace the pediatric CL, and the body weight of 70 kg was used. Dose volume was set 250 mL. The distribution parameters estimated for the pediatric patients were entered to the adult PK model. […] Model predictions of branaplam exposures after single oral administration of branaplam to adults are depicted in Table 5.

The values below come from patent publication US20240216369A1, “THE USE OF A SPLICING MODULATOR FOR A TREATMENT SLOWING PROGRESSION OF HUNTINGTON'S DISEASE” (Novartis AG, priority 2019, published 2024).

Take `CC1(C)CC(Oc2ccc(-c3ccc(-c4cn[nH]c4)cc3O)nn2)CC(C)(C)N1` [Compound 18, 5-(1H-pyrazol-4-yl)-2-(6-((2,2,6,6-tetramethylpiperidin-4-yl)oxy)pyridazin-3-yl)phenol]: in data set [1], the “effect on endogenous mouse HTT transcript or protein” value was “no lowering effect”. Besides, in the data set on tHTT, the “tHTT pIC50” value worked out at 7.371. Moreover, in “Adult ACAT/PBPK model”, the Vc is recorded as 3.62 (Optimized value using GastroPlus ™ based on the 1/h, the k12 is recorded as 1.41 (Optimized value using GastroPlus ™ based on the 1/h and the k21 is 0.144 (Optimized value using GastroPlus ™ based on the 1/h.
